Starred links: 1 amine or outer side, 2 acyl side, 3 side chain; linkers in the order of their positions; H or OH if unused. Non-standard residues stand in square brackets, D forms with d. Residues, ends and D or L forms follow the SMILES beside them. Groups on a side chain read outwards from the residue. *: point of attachment. DOTA = O=C(O)CN1CCN(CC(=O)O)CCN(CC(=O)*)CCN(CC(=O)O)CC1; NH(2-(imidazol-4-yl)ethyl) = c1ncc(CCN*)[nH]1; Suc = O=C(CCC(=O)[*:2])[*:1]; X1 = NC(=S)NN=CC(=O)*
Experiments:
[1] = test system: GW-39 (CEA positive) tumors; design: species or system nude mice; conditions: mouse, in vivo
Method: The utility of BS14HP for tumor pretargeting was evaluated in GW-39 tumor-bearing mice using a bivalent HSG peptide (IMP-241) labeled with ^111In. IMP-241 has a structure of DOTA-Phe-Lys(HSG)-D-Tyr-Lys(HSG)-NH2, where the N-terminal amino group of Phe is linked to a DOTA and the epsilon amino group of each lysine is derivatived with an HSG group. The tetrapeptide backbone (Phe-Lys-(D-Tyr)-Lys) contains a d-amino acid (D-Tyr) and the carboxyl group of the C-terminal lys is amidated.
(§1) The results from this analysis were compared with those of chemically linked hMN-14×679 (Fab′×Fab′) and BS1.5H (bispecific diabody). Nude mice bearing GW-39 (CEA positive) tumors were pre-targeted with BS14HP, BS1.5H or hMN-14×679. Initially, the bio-distribution was followed with ^131I-labeled bispecific agent. The tumor residence and blood clearance of ^131I-BS14HP is depicted in FIG. 7. As determined in preliminary experiments, the time interval between administration of bispecific targeting agent and of ^111In-IMP241 peptide is the amount of time required for the former to clear the blood to a concentration of 1% ID/g or less. […] IMP-241 (Immunomedics, Inc), a peptide containing two HSG groups and a DOTA moiety, was loaded with ^111Indium and injected in pre-targeted mice. The bio-distribution of the ^111In-IMP-241 was examined at 3 hours after injection (FIG. 8A) and the tumor/non-tumor ratios are shown in FIG. 8B.

in vivo = experiment: in vivo; design: species or system nude mice; conditions: nude, mouse
Method: (§2) IMP-245 was prepared and labeled using standard techniques known in the art. See, for example, published application US20030198595 (now issued U.S. Pat. No. 7,138,103), which is hereby incorporated by reference in its entirety. The experiment used 3 groups of 15 mice, each of which was necropsied, and 1 group of 5 mice that was imaged. Three groups of mice were administered 6 μCi ^125I-hBS14 (40 μg, 5.0×10^−10 moles). In the last group (imaging group), 3 mice received unlabeled hBS14. The amount of ^99mTc-IMP-245 administered to all the mice was ˜40 μCi (92 ng, 5.0×10^−11 moles) for a bispecific:peptide ratio of 10:1. […] Due to differences in tumor growth rates, only 20 mice were initially available for administration of hBS14. Fifteen mice were used to fill out Group II while 5 mice were used for Group I. The remaining mice (including the imaged mice) were injected one week later. Not all the mice implanted with GW-39 tumors developed usable tumors and, therefore, Group I only had 10 mice and were sacrificed at 1 hr post-peptide injection and 24 hrs post-injection.

[2] = test system: human colonic tumor (GW-39) xenograft; experiment: in vivo; design: species or system nude mice; conditions: mouse
Method: as §2

[3] = Blood clearance of radioiodinated bispecific agents in GW-39 tumor-bearing nude mice; type: in vivo; conditions: 131I-labeled bispecific agent, preliminary experiments
Source text: as §1

[4] = test system: WI2 IgG, an anti idiotypic antibody to hMN-14; experiment: BIAcore WI2 molar binding ratio of bispecific protein captured on HSG sensorchip; design: species or system rat; conditions: protein bound to HSG sensorchip, then WI2; theoretical maximum 1.0 for two CEA binding sites
Method: The analysis step is as follows. Samples of the culture media were diluted 1:5 in EB buffer (150 mM NaCl; 50 μM EDTA; 0.005% surfactant P20; 10 mM HEPES, pH 7.4) and injected ([…]) over a high-density, HSG-coupled sensorchip in a BIAcoreX system. Following injection of the diluted media, EB containing 20 μg/ml of WI2 IgG, an anti idiotypic antibody to hMN-14, was injected ([…]) over the sensorchip to confirm bispecific binding. The initial binding slopes were used to quantitate yields. Seven of the nine zeocin resistant clones tested produced bispecific protein with a yield of up to 3 mg per liter of culture media.
The W12:BS14HP molar binding ratio can be derived by comparison of the response units (RU) attained from BS14HP binding to the HSG sensorchip with the further RU increase from W12 binding to BS14HP with normalization for the respective molecular weights. Several BS14HP preps were analyzed with the measured ratio ranging from 0.8-0.9. […]
If the W12 binding is allowed to approach saturation, the stoichiometry of the binding can be determined. […] As each increase in RU level is directly proportional to the mass bound, the WI2:bsAb molar binding ratio can be calculated using the formula (RUWI2/RUhBS14)×(MWhBS14/MWWI2). hBS14 was designed to be bivalent for CEA (and monovalent for HSG) and as such should bind W12 (also bivalent) with a 1:1 molar ratio. […]

NC(=O)[C@@H](CCCCNC(=O)CNC(=O)CCC(=O)NCCc1c[nH]cn1)NC(=O)[C@@H](CCC(=O)O)NC(=O)[C@@H](CCCCNC(=O)CNC(=O)CCC(=O)NCCc1c[nH]cn1)NC(=O)[C@@H](Cc1ccc(O)cc1)NC(=O)CN1CCN(CC(=O)O)CCN(CC(=O)O)CCN(CC(=O)O)CC1 [IMP288] ({DOTA}-[dY][dK]([Gly-Suc-NH(2-(imidazol-4-yl)ethyl)])[dE][dK]([Gly-Suc-NH(2-(imidazol-4-yl)ethyl)])-NH2)
pretargeting experiments performed again with other peptides [1]: same results

C[C@@H](NC(=O)CN1CCN(CC(=O)O)CCN(CC(=O)O)CCN(CC(=O)O)CC1)C(=O)N[C@H](CCCCNC(=O)CNC(=O)CCC(=O)NCCc1cnc[nH]1)C(=O)N[C@H](CCC(=O)O)C(=O)N[C@H](CCCCNC(=O)CNC(=O)CCC(=O)NCCc1cnc[nH]1)C(N)=O [IMP281] ({DOTA}-[dA][dK]([Gly-Suc-NH(2-(imidazol-4-yl)ethyl)])[dE][dK]([Gly-Suc-NH(2-(imidazol-4-yl)ethyl)])-NH2)
pretargeting experiments performed again with other peptides [1]: same results

NC(=O)[C@H](CCCCNC(=O)[C@H](CS)NC(=O)C=NNC(N)=S)NC(=O)[C@H](CCCCNC(=O)CNC(=O)CCC(=O)NCCc1c[nH]cn1)NC(=O)[C@@H](Cc1ccc(O)cc1)NC(=O)[C@H](CCCCNC(=O)CNC(=O)CCC(=O)NCCc1c[nH]cn1)NC(=O)[C@H](Cc1ccccc1)NC(=O)CN1CCN(CC(=O)O)CCN(CC(=O)O)CCN(CC(=O)O)CC1 [IMP-245] ({DOTA}-FK([Gly-Suc-NH(2-(imidazol-4-yl)ethyl)])[dY]K([Gly-Suc-NH(2-(imidazol-4-yl)ethyl)])K([Cys-X1])-NH2; N-terminus and C-terminus assumed)
tissue uptake at 1 h (in vivo): 36.9 ± 6.42 %ID/g
tissue uptake at 24 h (in vivo): 3.81 ± 0.8 %ID/g
tissue uptake at 24 h (in vivo; 92 ng): 3.71 ± 0.43 %ID/g
tissue uptake at 24 h (in vivo; 92 ng, tumor uptake): 0.3 ± 0.08 %ID/g
tissue uptake at 4 h (in vivo; tumor uptake): 15.9 ± 16.3 %ID/g
fold less peptide than hBS14 in the tumor [2]: 4.7 fold
fold more IMP-245 in the tumor versus hBS14 [2]: 2.4 fold
fold more IMP-245 than hBS14 in the tumors [2]: Approximately 2 fold
relative amount of actual signal in the tumors, fold less [2]: 13 fold
tumor uptake ([2]; nude, 4 h): 14.53±4.90 % ID/g

NC(=O)[C@@H](CCCCNC(=O)CNC(=O)CCC(=O)NCCc1cnc[nH]1)NC(=O)[C@@H](Cc1ccc(O)cc1)NC(=O)[C@@H](CCCCNC(=O)CNC(=O)CCC(=O)NCCc1cnc[nH]1)NC(=O)[C@@H](Cc1ccccc1)NC(=O)CN1CCN(CC(=O)O)CCN(CC(=O)O)CCN(CC(=O)O)CC1 [IMP284] ({DOTA}-[dF][dK]([Gly-Suc-NH(2-(imidazol-4-yl)ethyl)])[dY][dK]([Gly-Suc-NH(2-(imidazol-4-yl)ethyl)])-NH2)
pretargeting experiments performed again with other peptides [1]: same results

B1: BS14HP: bispecific trivalent heterodimer (SEQ ID NO:1 and 2) from Pichia pastoris, two binding sites for CEA and one for HSG (antibody)
heavy: EAEAEFMEVQLVESGGDLVKPGGSLKLSCAASGFTFSIYTMSWLRQTPGKGLEWVATLSGDGDDIYYPDSVKGRFTISRDNAKNSLYLQMNSLRAEDTALYYCARVRLGDWDFDVWGQGTTVSVSSGGGGSDIQLTQSPSSLSASVGDRVTITCKASQDVGTSVAWYQQKPGKAPKLLIYWTSTRHTGVPSRFSGSGSGTDFTFTISSLQPEDIATYYCQQYSLYRSFGQGTKVEIKRLEGGGSEVQLVESGGGVVQPGRSLRLSCSASGFDFTTYWMSWVRQAPGKGLEWIGEIHPDSSTINYAPSLKDRFTISRDNAKNTLFLQMDSLRPEDTGVYFCASLYFGFPWFAYWGQGTPVTVSVDHHHHHH
light: EAEAEFDIQLTQSPSSLSASVGDRVTITCKASQDVGTSVAWYQQKPGKAPKLLIYWTSTRHTGVPSRFSGSGSGTDFTFTISSLQPEDIATYYCQQYSLYRSFGQGTKVEIKRGGGQFMEVQLVESGGGVVQPGRSLRLSCSASGFDFTTYWMSWVRQAPGKGLEWIGEIHPDSSTINYAPSLKDRFTISRDNAKNTLFLQMDSLRPEDTGVYFCASLYFGFPWFAYWGQGTPVTVSGGGGSDIVMTQSPSSLAVSPGERVTLTCKSSQSLFNSRTRKNYLGWYQQKPGQSPKLLIYWASTRESGVPDRFSGSGSGTDFTLTINSLQAEDVAVYYCTQVYYLCTFGAGTKLELKRLDHHHHHH
pre-targeting clearance time (time to clear the blood to 1% ID/g or less) [3]: 24 h
WI2:bsAb molar binding ratio [4]: 0.8-0.9
111In-IMP241 peptide specifically bound to the tumor, compared to mice pretargeted with BS1.5H or hMN14×679 [1]: approximately three-fold

From patent US8829175B2, “Nucleic acids encoding polyvalent protein complexes” (IBC Pharmaceuticals, Inc., priority 2003, dated 2014)
